From patent publication US4600537A, “Preparation of (±) 4-demethoxy-6 (and-11-)-deoxydaunomycinone” (Farmitalia Carlo Erba S.p.A., priority 1981, dated 1986)
Converted amounts (≈) assume the structure as drawn. “And” between values parts separate entries of the source, which are not always exact repeats. Equal values may be shown once.

Experiments:
P388 ascitic leukemia = assay: Effect against P388 leukemia in mice; design: LTS (long term survivors) / Toxic deaths (evaluated on the basis of zooptic findings): dose or concentration left out as unconfirmed; conditions: for antitumor activity (in words): P388 ascitic leukemia in mice
Method: The activity of the compounds 4-demethoxy-4'-epi-11-deoxydaunorubicin and 4-demethoxy-deoxy-daunorubicin was also tested against P388 ascitic leukemia in mice.

Hela cells = assay: Effect on Hela cells cloning activity (cytotoxic activity in vitro); assay type: cell-based; conditions: treatment for 24 hours; for IC50: read-out: Effect on Hela cells cloning activity, ID50; for Effect on Hela cells cloning activity, %: 1440 min; for activity at 0.1 µg/mL: dose 100 ng/ml
Method: The biological activity of the following compound was tested against Hela cells in vitro: […]

[1] = Homo sapiens, HeLa, 24 h, dose 6.2 ng/ml
[2] = Homo sapiens, HeLa, 24 h, dose 25 ng/ml

Compound	antitumor activity (in words) (P388 ascitic leukemia)	LTS (long term survivors) (P388 ascitic leukemia; dose 4.4, ip on day 1)	Toxic deaths (evaluated on the basis of zooptic findings) (P388 ascitic leukemia; dose 4.4, ip on day 1)	LTS (long term survivors) (P388 ascitic leukemia; dose 6.6, ip on day 1)	Toxic deaths (evaluated on the basis of zooptic findings) (P388 ascitic leukemia; dose 6.6, ip on day 1)	LTS (long term survivors) (P388 ascitic leukemia; dose 10, ip on day 1)	Toxic deaths (evaluated on the basis of zooptic findings) (P388 ascitic leukemia; dose 10, ip on day 1)	IC50 (Hela cells; Homo sapiens, HeLa)	Effect on Hela cells cloning activity, % (Hela cells; dose 6.2 ng/ml)	activity at 0.0062 µg/mL (Hela cells; [1])	activity at 0.025 µg/mL (Hela cells; [2])	activity at 0.1 µg/mL (Hela cells; Homo sapiens, HeLa, 24 h)	other results
4-demethoxy-deoxy-daunorubicin	exert antitumor activity	0/10	0/10	0/10	7/10	0/10	8/10	–	–	–	–	–	–
CC(=O)[C@]1(O)Cc2cc3c(c(O)c2[C@@H](O[C@H]2C[C@H](N)[C@@H](O)[C@H](C)O2)C1)C(=O)c1ccccc1C3=O [4-demethoxy-4'-epi-11-deoxydaunorubicin]	exert antitumor activity	–	–	0/10	0/10	0/10	0/10	0.04 µg/mL (≈ 0.0831 µM)	60% and 105%	–	–	–	Effect on Hela cells cloning activity, % (Hela cells; dose 1.5 ng/ml): 78% and 109%; Effect on Hela cells cloning activity, % (Hela cells; dose 25 ng/ml): 56% and 82%; LTS (long term survivors) (P388 ascitic leukemia; dose 15, ip on day 1): 0/10; Toxic deaths (evaluated on the basis of zooptic findings) (P388 ascitic leukemia; dose 15, ip on day 1): 0/10
CC(=O)[C@]1(O)Cc2c(cc3c(c2O)C(=O)c2ccccc2C3=O)[C@@H](O[C@H]2C[C@H](N)[C@H](O)[C@H](C)O2)C1 [4-demethoxy-6-deoxydaunorubicin]	–	–	–	–	–	–	–	0.017 µg/mL (≈ 0.0353 µM)	–	–	–	–	activity at 0.005 µg/mL (Hela cells; Homo sapiens, HeLa, 24 h, dose 5 ng/ml): 119%; activity at 0.01 µg/mL (Hela cells; Homo sapiens, HeLa, 24 h, dose 10 ng/ml): 73%; activity at 0.05 µg/mL (Hela cells; Homo sapiens, HeLa, 24 h, dose 50 ng/ml): 4%; activity at 0.25 µg/mL (Hela cells; Homo sapiens, HeLa, 24 h, dose 250 ng/ml): 0%
C[C@@H]1O[C@@H](O[C@H]2C[C@](O)(C(=O)CO)Cc3cc4c(c(O)c32)C(=O)c2ccccc2C4=O)C[C@H](N)[C@H]1O [4-demethoxy-11-deoxy-4'-epidoxorubicin]	–	–	–	–	–	–	–	0.02 µg/mL (≈ 0.0402 µM)	–	100%	33%	1%	activity at 0.4 µg/mL (Hela cells; Homo sapiens, HeLa, 24 h, dose 400 ng/ml): 0%
CC(=O)[C@]1(O)Cc2cc3c(c(O)c2[C@@H](O[C@H]2C[C@H](N)[C@H](O)[C@H](C)O2)C1)C(=O)c1ccccc1C3=O [4-demethoxy-11-deoxydaunorubicin]	–	–	–	–	–	–	–	0.025 µg/mL (≈ 0.0519 µM)	–	112%	50%	0%	–
COc1cccc2c1C(=O)c1c(O)c3c(c(O)c1C2=O)C[C@@](O)(C(C)=O)C[C@@H]3O[C@H]1C[C@H](N)[C@H](O)[C@H](C)O1 [Daunorubicin, reference compound]	–	0/10	0/10	0/10	3/10	–	–	0.015 µg/mL (≈ 0.0284 µM)	86% and 150% and 93% and 101%	–	–	–	activity at 0.0031 µg/mL (Hela cells; Homo sapiens, HeLa, 24 h, dose 3.1 ng/ml): 104%; activity at 0.0125 µg/mL (Hela cells; Homo sapiens, HeLa, 24 h, dose 12.5 ng/ml): 65%; Effect on Hela cells cloning activity, % (Hela cells; dose 3.1 ng/ml): 115%; Effect on Hela cells cloning activity, % (Hela cells; dose 12.5 ng/ml): 83% and 80% and 77% and 79%; LTS (long term survivors) (P388 ascitic leukemia; dose 2.9, ip on day 1): 0/10; Toxic deaths (evaluated on the basis of zooptic findings) (P388 ascitic leukemia; dose 2.9, ip on day 1): 0/10
